Values after ≈ are worked out from the molar mass of the structure shown.
Tested on: P. aeruginosa 26
Experiment: In vitro antibacterial activity, MIC by the two-fold agar-plate dilution method
Format: cell-based
Conditions: Pseudomonas aeruginosa, heart infusion agar, 37° C., 20 hours, overnight culture 10^8 viable cells per ml, read-out: MIC (minimal inhibitory concentration)
Method: Now in order to show the utility of the object compound (I), the test data on MIC (minimal inhibitory concentration) of representative compound of this invention are shown in the following.
In vitro antibacterial activity was determined by the two-fold agar-plate dilution method as described below.
One loopful of an overnight culture of each test strain in Trypticase-soy broth (10^8 viable cells per ml) was streaked on heart infusion agar (HI-agar)containing graded concentrations of representative test compound, and the minimal inhibitory concentration (MIC) was expressed in terms of μg/ml after incubation at 37° C. for 20 hours.

Row | Compound | MIC [µg/mL]
1 | CC(C)(O/N=C(\C(=O)N[C@@H]1C(=O)N2C(C(=O)[O-])=C(C[N+](C)(C)Cc3cc(=O)c(O)c[nH]3)CS[C@H]12)c1nsc(N)n1)C(=O)O [Test compound (1), 7β-[2-(5-Amino-1,2,4-thiadiazol-3-yl)-2-(1-carboxy-1-methylethoxyimino)acetamido]-3-[N,N-dimethyl-N-{(5-hydroxy-4-oxo-1,4-dihydropyridin-2-yl)methyl}ammonio]methyl-3-cephem-4-carboxylate (syn isomer)] | ≤ 0.025
2 | CO/N=C(\C(=O)N[C@@H]1C(=O)N2C(C(=O)[O-])=C(C[N+]3(C)CCN(C(=O)c4cc(O)c(O)cn4)CC3)CS[C@H]12)c1nsc(N)n1 [Test compound (2), 7β-[2-(5-Amino-1,2,4-thiadiazol-3-yl)-2-methoxyiminoacetamido]-3-[1-methyl-4-(4,5-dihydroxy-2-pyridylcarbonyl)-1-piperazinio]methyl-3-cephem-4-carboxylate (syn isomer)] | 0.05 (≈ 0.0789 µM)

From patent US5401734A, “Cephem compounds” (Fujisawa Phamaceutical Co., Ltd., priority 1988, dated 1995)
